Molecular target: T1, Kv1.1 alpha subunit T1 domain binding to Kvbeta1 subunits (Rattus norvegicus, UniProt P63144)
T1 construct: expression of Kv1.1 alpha subunit T1 domains in E. coli; His; made in house; host or cells: E. coli (cleared lysates)
T1 sequence (P63144 1-401): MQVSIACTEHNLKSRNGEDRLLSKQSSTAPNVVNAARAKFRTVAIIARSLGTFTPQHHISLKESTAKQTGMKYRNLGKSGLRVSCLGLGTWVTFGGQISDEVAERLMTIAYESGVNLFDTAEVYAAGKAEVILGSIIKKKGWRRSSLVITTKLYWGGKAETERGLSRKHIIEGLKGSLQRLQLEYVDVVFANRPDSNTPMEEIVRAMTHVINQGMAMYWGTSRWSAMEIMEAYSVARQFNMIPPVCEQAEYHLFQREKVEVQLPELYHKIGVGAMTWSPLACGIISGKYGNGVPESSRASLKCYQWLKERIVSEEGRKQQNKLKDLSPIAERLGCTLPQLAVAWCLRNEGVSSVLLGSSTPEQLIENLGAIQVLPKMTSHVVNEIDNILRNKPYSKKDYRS
Assay: Kv1.x T1 / Kvbeta subunit protein-protein interaction assay (ELISA)
Settings: His-/FLAG-tagged Kv1.1 T1 domain lysate; biotin-tagged Kvbeta1 immobilised on streptavidin plates; anti-FLAG/HRP ELISA detection; read-out: IC50 for inhibition of Kv1.1 alpha subunit T1 binding to Kvbeta1 subunits
Protocol: Compounds of Examples 3, 13-15 and 18-22 and 24-26 were examined for their ability to inhibit the interaction between Kv1.x channels and Kvbeta subunits using a protein-protein interaction assay.
Cloning of rat His- and biotin-tagged Kvbeta1 subunit cDNA, expression of Kvbeta1 subunits in E. coli and lysis of E. coli containing Kvbeta1 subunits were carried out as previously described (Kozlowski et al., patent application WO03078464).
Cloning of His- and FLAG-tagged Kv1.1 alpha subunit T1 domain cDNA, expression of Kv1.1 alpha subunit T1 domains in E. coli and lysis of E. coli containing Kv1.1 alpha subunit T1 domains were carried out as previously described (Kozlowski et al., patent application WO03078464).
To 96-well streptavidin coated microtitre plates, 100 μl of optimized concentrations of Kvbeta1 subunit cleared lysates (typically 1 in 10 dilutions in PBS-Tween) were added to each well. Plates were incubated at room temperature for 1 hour prior to use. Each well was then washed 3 times with 300 μl of PBS-Tween. Following the final wash, 80 μl of PBS-Tween was added to each well.
The test compounds (dissolved in a suitable vehicle) were added to the wells of a prepared 96-well microliter plate to achieve a range of concentrations to maintain a final assay volume of 100 μl. Plates were incubated for 30 minutes at room temperature.
After incubation with test compounds, 100 μl of Kv1.1 alpha subunit T1 domain cleared lysate (diluted 1 in 10 in PBS-Tween) was added to each well and incubated for 60 minutes at room temperature on a shaker. Unbound Kv1.1 alpha subunit T1 domain was removed by washing 3 times in 300 μl of PBS-Tween. Bound Kv1.1 alpha subunit T1 domain was estimated by using appropriately diluted mouse anti-FLAG antibody and anti-mouse IgG secondary antibody HRP conjugate using standard ELISA procedures. HRP was detected as previously described (Kozlowski et al., patent application WO03078464).
Data were analyzed using standard software packages. The test compounds were examined for their ability to inhibit the binding of Kv1.1 alpha subunit T1 domain to Kvbeta1 subunits to determine inhibition as a percentage of maximal binding in the absence of any test compound. Results are presented as the half maximal inhibitory concentration (IC50) for inhibition of Kv1.1 alpha subunit T1 binding to Kvbeta1 subunits.

Row | IC50 | Compound
1 | 59 µM | Cc1ccc(S(=O)(=O)NC(=O)Nc2ccc3c(c2)CCN(C(=O)NS(=O)(=O)c2ccc(C)cc2)CC3)cc1 [Example 15, N-[(4-Methylphenyl)sulfonyl]-7-({[(4-methylphenyl)sulfonyl]carbamoyl}amino)-1,2,4,5-tetrahydro-3H-3-benzazepine-3-carboxamide]
2 | 191 µM | O=C(Nc1ccc2c(c1)CCN(C(=O)NS(=O)(=O)c1ccc(F)cc1)CC2)NS(=O)(=O)c1ccc(F)cc1 [Example 20, N-[(4-Fluorophenyl)sulfonyl]-7-({[(4-fluorophenyl)sulfonyl]carbamoyl}amino)-1,2,4,5-tetrahydro-3H-3-benzazepine-3-carboxamide]
3 | 88 µM | Cc1ccc(S(=O)(=O)NC(=O)N2CCc3ccc(NS(=O)(=O)c4ccc(-c5ccccc5)cc4)cc3CC2)cc1 [Example 25, N-[(4-Methylphenyl)sulfonyl]-7-([(4-biphenyl)sulfonyl]amino)-1,2,4,5-tetrahydro-3H-3-benzazepine-3-carboxamide]
4 | 47 µM | Cc1cccc(S(=O)(=O)NC(=O)Nc2ccc3c(c2)CCN(C(=O)NS(=O)(=O)c2cccc(C)c2)CC3)c1 [Example 17, N-[(3-Methylphenyl)sulfonyl]-7-({[(3-methylphenyl)sulfonyl]carbamoyl}amino)-1,2,4,5-tetrahydro-3H-3-benzazepine-3-carboxamide]
5 | 81 µM | Cc1ccc(S(=O)(=O)NC(=O)N2CCc3ccc(NS(=O)(=O)c4ccc(C)cc4)cc3CC2)cc1 [Example 24, N-[(4-Methylphenyl)sulfonyl]-7-([(4-methylphenyl)sulfonyl]amino)-1,2,4,5-tetrahydro-3H-3-benzazepine-3-carboxamide]
6 | 16 µM | Cc1ccc(S(=O)(=O)NC(=O)Nc2ccc3c(c2)CN(C(=O)NS(=O)(=O)c2ccc(C)cc2)C3)cc1 [Example 14, N-[(4-methylphenyl)sulfonyl]-5-[({[(4-methylphenyl)sulfonyl]amino}carbonyl)amino]-1,3-dihydro-2H-isoindole-2-carboxamide]
7 | 51 µM | O=C(Nc1ccc2c(c1)CCN(C(=O)NS(=O)(=O)c1ccc(Cl)cc1)CC2)NS(=O)(=O)c1ccc(Cl)cc1 [Example 19, N-[(4-Chlorophenyl)sulfonyl]-7-({[(4-chlorophenyl)sulfonyl]carbamoyl}amino)-1,2,4,5-tetrahydro-3H-3-benzazepine-3-carboxamide]
8 | 38 µM | COc1ccc(S(=O)(=O)NC(=O)Nc2ccc3c(c2)CCN(C(=O)NS(=O)(=O)c2ccc(OC)cc2)CC3)cc1 [Example 21, N-[(4-Methoxyphenyl)sulfonyl]-7-({[(4-methoxyphenyl)sulfonyl]-carbamoyl}amino)-1,2,4,5-tetrahydro-3H-3-benzazepine-3-carboxamide]
9 | 41 µM | CC(C)(C)c1ccc(S(=O)(=O)NC(=O)Nc2ccc3c(c2)CCN(C(=O)NS(=O)(=O)c2ccc(C(C)(C)C)cc2)CC3)cc1 [Example 22, N-[(4-tert-Butylphenyl)sulfonyl]-7-({[(4-tert-butylphenyl)sulfonyl]carbamoyl}-amino)-1,2,4,5-tetrahydro-3H-3-benzazepine-3-carboxamide]
10 | 181 µM | O=C(Nc1ccc2c(c1)CCN(C(=O)NS(=O)(=O)c1ccccc1Cl)CC2)NS(=O)(=O)c1ccccc1Cl [Example 18, N-[(2-Chlorophenyl)sulfonyl]-7-({[(2-chlorophenyl)sulfonyl]carbamoyl}amino)-1,2,4,5-tetrahydro-3H-3-benzazepine-3-carboxamide]
11 | 30 µM | Cc1ccc(S(=O)(=O)NC(=O)Nc2ccc3c(c2)CCN(C(=O)NS(=O)(=O)c2ccc(C)cc2)C3)cc1 [Example 13, N-[(4-methylphenyl)sulfonyl]-6-({[(4-methylphenyl)sulfonyl]-carbamoyl}amino)-3,4-dihydroisoquinoline-2(1H)-carboxamide]
12 | 50 µM | N-benzylaminocarbonyl-7-[({[(4-methylphenyl)sulfonyl]amino}carbonyl)amino]-1,2,4,5-tetrahydro-3H-3-benzazepine-3-carboxamide [Example 3]
